Measurements published in ChEMBL document CHEMBL1201862, “PubChem BioAssay data set” (2004).
Active and inactive are the calls of the source.

Experiments:
[1] = target: T1, Carboxy-terminal domain RNA polymerase II polypeptide A small phosphatase 1 (Homo sapiens, UniProt Q9GZU7); experiment: inhibitors of CTDSP1, concentration-response testing, biochemical assay, absorbance-based, actives from ultra-high-throughput screening (AID 540297); format: functional
T1 sequence (Q9GZU7 whole entry): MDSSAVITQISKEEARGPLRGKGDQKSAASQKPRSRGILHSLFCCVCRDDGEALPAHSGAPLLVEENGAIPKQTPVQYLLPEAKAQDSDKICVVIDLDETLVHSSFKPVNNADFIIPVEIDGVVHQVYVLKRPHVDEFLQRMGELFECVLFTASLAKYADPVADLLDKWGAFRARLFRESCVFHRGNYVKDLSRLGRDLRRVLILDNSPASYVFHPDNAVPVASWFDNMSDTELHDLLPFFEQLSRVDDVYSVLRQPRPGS

[2] = A cytotoxicity screen of small molecule inhibitors of the PhoP region in Salmonella typhi identified in the primary screen. [Related pubchem assays: 1850, 1864, 1985 ]; format: functional
[3] = cells; format: functional
[4] = target: T2, Cytochrome P450 2C9 (Homo sapiens, UniProt P11712)
T2 sequence (P11712 whole entry): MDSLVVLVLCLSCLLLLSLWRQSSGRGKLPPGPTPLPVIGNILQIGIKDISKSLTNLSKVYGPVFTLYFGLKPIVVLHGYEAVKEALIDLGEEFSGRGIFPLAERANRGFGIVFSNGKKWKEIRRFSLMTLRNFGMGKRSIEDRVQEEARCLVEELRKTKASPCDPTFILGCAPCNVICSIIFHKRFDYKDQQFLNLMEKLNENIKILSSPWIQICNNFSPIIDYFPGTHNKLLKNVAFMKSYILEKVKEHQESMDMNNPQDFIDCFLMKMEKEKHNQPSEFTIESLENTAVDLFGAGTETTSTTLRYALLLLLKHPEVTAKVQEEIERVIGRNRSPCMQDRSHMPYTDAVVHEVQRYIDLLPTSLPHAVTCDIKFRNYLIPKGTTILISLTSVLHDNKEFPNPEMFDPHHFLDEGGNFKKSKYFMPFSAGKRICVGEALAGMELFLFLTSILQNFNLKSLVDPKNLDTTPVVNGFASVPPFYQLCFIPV

[5] = target: Cytochrome P450 2C19 (Homo sapiens, UniProt P33261); experiment: Cytochrome panel assay with activity outcomes. Panel member name: p450-cyp2c19 Compounds with AC50 equal or less than 10 uM are considered active; format: functional; details: read-out: AC50
Sequence of Cytochrome P450 2C19 (P33261 whole entry): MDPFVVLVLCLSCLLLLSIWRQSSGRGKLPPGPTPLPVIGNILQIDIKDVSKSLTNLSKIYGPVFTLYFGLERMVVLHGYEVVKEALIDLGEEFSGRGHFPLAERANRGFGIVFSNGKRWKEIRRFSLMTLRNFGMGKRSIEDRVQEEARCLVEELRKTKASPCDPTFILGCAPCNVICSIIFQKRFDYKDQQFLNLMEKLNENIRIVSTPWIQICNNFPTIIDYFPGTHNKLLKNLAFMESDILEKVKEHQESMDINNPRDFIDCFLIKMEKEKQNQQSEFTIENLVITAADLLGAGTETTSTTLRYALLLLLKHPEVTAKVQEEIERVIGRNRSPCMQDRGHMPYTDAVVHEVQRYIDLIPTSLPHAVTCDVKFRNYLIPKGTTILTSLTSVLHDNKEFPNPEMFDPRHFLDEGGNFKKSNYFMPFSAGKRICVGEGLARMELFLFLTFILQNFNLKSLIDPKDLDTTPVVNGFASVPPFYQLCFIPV

[6] = target: T3, E3 ubiquitin-protein ligase XIAP (Homo sapiens, UniProt P98170); experiment: Counter Screen using XIAP-Bir3 for Chemical Antagonists of Bir1/2 domains of IAP-family anti-apoptotic proteins. [Related pubchem assays (depositor defined):AID1018, AID1449, AID1514, AID1638, AID1749, AID1750, AID488957, AID488963]
T3 sequence (P98170 whole entry): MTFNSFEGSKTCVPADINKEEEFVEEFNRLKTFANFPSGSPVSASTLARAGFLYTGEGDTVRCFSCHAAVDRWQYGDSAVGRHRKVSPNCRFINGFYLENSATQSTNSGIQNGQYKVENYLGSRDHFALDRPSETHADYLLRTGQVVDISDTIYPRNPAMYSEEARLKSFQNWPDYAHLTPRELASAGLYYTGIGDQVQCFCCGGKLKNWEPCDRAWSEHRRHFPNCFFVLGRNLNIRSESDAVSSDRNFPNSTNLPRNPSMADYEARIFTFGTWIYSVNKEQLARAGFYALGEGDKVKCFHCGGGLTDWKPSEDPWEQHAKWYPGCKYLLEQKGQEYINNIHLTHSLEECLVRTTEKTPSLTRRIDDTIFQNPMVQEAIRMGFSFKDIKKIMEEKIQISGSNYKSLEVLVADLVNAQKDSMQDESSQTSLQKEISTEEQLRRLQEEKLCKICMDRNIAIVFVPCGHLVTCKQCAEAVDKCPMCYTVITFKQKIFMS

[7] = target: T3, E3 ubiquitin-protein ligase XIAP; experiment: XIAP antagonists, biochemical, IAP family, fluorescence polarization (AID 1018); format: functional
[8] = target: Voltage-dependent T-type calcium channel subunit alpha-1H (Homo sapiens, UniProt O95180); format: functional;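 further: channel activity triggered by adding a high calcium stimulation buffer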
Sequence of Voltage-dependent T-type calcium channel subunit alpha-1H (O95180 whole entry): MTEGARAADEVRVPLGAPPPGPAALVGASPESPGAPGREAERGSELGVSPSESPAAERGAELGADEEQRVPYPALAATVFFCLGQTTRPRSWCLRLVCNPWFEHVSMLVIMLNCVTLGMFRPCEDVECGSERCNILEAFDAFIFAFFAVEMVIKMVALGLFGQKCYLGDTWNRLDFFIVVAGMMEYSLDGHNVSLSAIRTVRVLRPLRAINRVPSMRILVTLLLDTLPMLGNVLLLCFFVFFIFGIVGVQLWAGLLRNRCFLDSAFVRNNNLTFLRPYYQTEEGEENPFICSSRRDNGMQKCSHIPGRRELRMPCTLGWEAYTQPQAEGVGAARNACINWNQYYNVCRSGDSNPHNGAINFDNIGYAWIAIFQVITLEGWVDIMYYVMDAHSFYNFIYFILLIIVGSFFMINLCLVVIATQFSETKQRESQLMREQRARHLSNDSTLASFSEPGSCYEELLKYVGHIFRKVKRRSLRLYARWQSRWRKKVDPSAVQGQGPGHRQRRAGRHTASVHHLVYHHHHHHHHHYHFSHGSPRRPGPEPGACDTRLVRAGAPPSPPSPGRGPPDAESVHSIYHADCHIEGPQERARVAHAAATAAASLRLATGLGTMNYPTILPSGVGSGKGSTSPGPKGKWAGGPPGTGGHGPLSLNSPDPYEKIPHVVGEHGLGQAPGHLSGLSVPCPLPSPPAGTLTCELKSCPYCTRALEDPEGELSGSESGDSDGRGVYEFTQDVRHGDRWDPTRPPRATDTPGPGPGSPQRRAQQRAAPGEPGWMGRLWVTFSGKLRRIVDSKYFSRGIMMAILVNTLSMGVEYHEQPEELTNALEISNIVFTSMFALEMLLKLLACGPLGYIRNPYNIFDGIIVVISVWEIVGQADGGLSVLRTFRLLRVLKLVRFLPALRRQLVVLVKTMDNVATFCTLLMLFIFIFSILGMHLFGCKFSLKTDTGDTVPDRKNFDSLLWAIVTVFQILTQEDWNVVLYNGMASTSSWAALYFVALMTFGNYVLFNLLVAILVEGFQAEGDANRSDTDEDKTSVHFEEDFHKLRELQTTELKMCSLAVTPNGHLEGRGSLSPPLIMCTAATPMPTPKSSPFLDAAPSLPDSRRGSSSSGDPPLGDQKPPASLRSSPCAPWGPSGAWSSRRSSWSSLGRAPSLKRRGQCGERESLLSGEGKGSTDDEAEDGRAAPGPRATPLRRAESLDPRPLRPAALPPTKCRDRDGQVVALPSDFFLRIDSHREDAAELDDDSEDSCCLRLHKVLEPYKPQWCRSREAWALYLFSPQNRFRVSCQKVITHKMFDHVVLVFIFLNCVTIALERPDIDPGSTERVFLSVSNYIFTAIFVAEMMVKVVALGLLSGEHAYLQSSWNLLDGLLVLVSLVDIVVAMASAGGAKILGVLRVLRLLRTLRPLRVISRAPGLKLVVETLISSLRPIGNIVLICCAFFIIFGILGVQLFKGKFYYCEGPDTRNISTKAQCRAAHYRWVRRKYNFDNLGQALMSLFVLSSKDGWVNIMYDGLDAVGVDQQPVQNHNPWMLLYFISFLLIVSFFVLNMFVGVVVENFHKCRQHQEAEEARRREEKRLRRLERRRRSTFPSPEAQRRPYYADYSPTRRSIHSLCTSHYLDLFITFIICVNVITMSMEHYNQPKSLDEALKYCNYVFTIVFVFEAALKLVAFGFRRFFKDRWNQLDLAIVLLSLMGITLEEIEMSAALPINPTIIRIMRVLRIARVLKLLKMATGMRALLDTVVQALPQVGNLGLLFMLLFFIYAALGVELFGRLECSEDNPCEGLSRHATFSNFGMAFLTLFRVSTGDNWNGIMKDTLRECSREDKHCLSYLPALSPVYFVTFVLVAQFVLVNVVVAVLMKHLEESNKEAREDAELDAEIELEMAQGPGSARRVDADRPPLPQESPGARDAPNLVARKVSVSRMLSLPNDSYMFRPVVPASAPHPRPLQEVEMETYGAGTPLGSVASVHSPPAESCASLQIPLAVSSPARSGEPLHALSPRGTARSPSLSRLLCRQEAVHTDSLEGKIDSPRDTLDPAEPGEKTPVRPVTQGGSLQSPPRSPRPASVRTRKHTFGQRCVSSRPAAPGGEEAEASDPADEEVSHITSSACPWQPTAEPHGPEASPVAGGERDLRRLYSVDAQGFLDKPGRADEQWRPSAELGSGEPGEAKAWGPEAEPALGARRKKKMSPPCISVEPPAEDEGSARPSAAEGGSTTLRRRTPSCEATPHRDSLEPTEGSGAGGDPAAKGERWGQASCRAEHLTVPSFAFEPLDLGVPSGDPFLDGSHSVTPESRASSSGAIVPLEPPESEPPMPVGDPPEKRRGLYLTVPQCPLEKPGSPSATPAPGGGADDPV

[9] = target: T4, Endoribonuclease toxin MazF (Escherichia coli K-12, UniProt P0AE70); experiment: MazF toxin RNase activators, dose response, biochemical, fluorescence, single-stranded RNA substrate, uHTS hits (AID 588481); format: functional
T4 sequence (P0AE70 whole entry): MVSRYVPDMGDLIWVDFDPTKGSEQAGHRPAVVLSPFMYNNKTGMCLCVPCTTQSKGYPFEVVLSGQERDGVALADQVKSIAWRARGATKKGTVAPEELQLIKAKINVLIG

[10] = target: T4, Endoribonuclease toxin MazF; experiment: fluorescent RNA oligo signal without MazF, dose response, counter-screen for MazEF activator project, biochemical, fluorescence, single-stranded RNase substrate (AID 588502); format: functional
[11] = target: T5, Cytochrome P450 3A4 (Homo sapiens, UniProt P08684)
T5 sequence (P08684 whole entry): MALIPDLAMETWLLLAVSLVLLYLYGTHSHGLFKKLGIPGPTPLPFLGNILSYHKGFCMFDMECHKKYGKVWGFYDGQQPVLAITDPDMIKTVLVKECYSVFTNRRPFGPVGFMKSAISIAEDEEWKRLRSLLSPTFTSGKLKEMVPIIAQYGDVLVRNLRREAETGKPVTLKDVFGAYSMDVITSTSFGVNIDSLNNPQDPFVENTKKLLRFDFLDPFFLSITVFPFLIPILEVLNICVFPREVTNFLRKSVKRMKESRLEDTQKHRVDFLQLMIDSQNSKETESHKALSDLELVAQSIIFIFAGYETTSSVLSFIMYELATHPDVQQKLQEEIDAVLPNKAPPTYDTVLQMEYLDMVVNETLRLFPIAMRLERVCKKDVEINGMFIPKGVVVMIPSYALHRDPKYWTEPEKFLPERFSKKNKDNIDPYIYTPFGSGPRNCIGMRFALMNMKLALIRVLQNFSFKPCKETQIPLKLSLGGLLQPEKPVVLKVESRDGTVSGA

[12] = cytotoxicity toward NIH3T3 fibroblasts, dose response, counter-screen, cell-based, ATP luminescence, mouse fibroblasts (AID 2010); format: functional;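 further: cells exposed to compound for about 90 hours before reading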
[13] = inhibitors of intracellular T. cruzi replication, confirmation, NIH3T3 host cells, beta-gal luminescence (AID 2044); format: functional, cell-based;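 further: intracellular parasites grown in NIH/3T3 mouse fibroblasts as host cells; luminescent beta-galactosidase reporter signal from transgenic T. cruzi replicating inside host cells; inhibitors lower the luminescence signal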
[14] = target: T6, Corticotropin-releasing factor receptor 2/Corticotropin-releasing factor-binding protein (Homo sapiens, UniProt P24387+Q13324); experiment: activators of CRF receptor 2 with binding protein – uHTS hits, confirmation (AID 602473); format: functional; details: read-out: EC50_Mean
T6 sequence (Q13324 whole entry): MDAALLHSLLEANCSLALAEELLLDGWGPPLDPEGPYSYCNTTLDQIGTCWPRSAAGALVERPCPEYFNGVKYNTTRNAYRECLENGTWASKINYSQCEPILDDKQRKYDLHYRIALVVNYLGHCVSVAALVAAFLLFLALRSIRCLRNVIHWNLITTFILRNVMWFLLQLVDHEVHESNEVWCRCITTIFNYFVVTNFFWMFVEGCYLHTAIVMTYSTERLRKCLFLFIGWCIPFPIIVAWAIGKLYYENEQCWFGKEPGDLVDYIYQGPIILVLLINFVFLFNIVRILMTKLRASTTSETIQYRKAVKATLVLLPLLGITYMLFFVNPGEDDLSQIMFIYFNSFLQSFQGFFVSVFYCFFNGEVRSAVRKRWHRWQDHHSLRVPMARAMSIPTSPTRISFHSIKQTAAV
T6 sequence (P24387 whole entry): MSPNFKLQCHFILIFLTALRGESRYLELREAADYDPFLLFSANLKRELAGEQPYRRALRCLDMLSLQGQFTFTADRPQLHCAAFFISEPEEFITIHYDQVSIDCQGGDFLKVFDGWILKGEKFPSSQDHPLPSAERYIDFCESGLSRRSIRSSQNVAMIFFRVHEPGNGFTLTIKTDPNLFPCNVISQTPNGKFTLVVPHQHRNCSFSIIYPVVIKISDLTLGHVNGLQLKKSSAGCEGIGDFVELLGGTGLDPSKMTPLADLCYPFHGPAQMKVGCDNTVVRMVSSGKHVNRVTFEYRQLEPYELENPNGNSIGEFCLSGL

[15] = THP-1 cell cytotoxicity, dose response, cytotoxicity control for Vif-APOBEC3G degradation inhibitor project, THP-1 cells (AID 1117359); format: functional; details: Human immunodeficiency virus 1, THP-1
[16] = target: Cytochrome P450 2D6 (Homo sapiens, UniProt P10635);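 further: CYP2D6 member of a cytochrome P450 panel assay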
Sequence of Cytochrome P450 2D6 (P10635 whole entry, the tested form may be a part): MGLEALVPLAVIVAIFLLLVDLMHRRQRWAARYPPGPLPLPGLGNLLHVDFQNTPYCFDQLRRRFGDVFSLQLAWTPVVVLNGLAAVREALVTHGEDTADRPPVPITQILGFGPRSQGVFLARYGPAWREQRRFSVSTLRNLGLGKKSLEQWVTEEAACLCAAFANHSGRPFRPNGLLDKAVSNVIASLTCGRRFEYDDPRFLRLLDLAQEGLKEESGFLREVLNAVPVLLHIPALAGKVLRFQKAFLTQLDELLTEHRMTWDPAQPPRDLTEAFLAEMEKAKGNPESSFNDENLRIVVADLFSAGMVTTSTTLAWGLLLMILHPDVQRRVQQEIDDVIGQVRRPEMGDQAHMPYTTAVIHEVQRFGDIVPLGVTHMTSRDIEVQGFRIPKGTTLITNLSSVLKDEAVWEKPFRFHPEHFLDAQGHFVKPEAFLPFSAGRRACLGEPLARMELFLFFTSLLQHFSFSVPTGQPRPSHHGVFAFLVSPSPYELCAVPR

[17] = ZM109 Env clade C HIV-1 fusion inhibitors, dose response, HeLa effector, CEM target cells, luciferase, cherry-pick (AID 652058); format: functional, cell-based
[18] = inhibitors of HIV Env-driven cell fusion, dose response, cherry-pick (AID 652057); format: functional, cell-based
[19] = inhibitors of clade B AD8 Env fusion, dose response, cell-based, cherry-pick (AID 652062); format: functional;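 further: luciferase signal from cell-cell fusion driven by HIV-1 clade B AD8 Env; potency is for inhibitors of fusion seen as a drop in luminescence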
[20] = off-target signal loss in HeLa-CEM21 co-culture – HeLa F-luc CTL cells, cherry-picked, counter-screen for HIV-1 Env fusion inhibitor project, dose response (AID 652040); format: functional, cell-based;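 further: potency for signal decrease marking cytotoxic or nonspecific inhibition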
[21] = target: T7, Cytochrome P450 1A2 (Homo sapiens, UniProt P05177);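 further: PubChem cytochrome P450 panel assay, CYP1A2 panel member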
T7 sequence (P05177 whole entry): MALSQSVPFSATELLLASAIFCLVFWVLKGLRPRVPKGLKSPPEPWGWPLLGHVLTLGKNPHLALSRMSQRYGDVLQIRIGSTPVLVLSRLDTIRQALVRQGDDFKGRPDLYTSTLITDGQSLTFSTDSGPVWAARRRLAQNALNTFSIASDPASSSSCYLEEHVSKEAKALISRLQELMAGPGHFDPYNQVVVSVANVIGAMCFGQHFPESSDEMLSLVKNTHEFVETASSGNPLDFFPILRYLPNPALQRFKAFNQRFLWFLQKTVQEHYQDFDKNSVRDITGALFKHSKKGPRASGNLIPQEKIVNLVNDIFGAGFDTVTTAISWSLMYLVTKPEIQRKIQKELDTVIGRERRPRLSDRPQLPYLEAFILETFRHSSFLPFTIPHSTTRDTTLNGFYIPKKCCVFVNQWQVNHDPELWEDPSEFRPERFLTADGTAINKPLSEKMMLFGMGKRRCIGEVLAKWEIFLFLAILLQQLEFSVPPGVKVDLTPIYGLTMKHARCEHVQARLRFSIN

[22] = HEp-2 cell cytotoxicity, dose response, cytotoxicity control for RSV inhibitor project, HTS (AID 2410); format: functional; details: human respiratory syncytial virus
[23] = target: T2, Cytochrome P450 2C9; remark: listed apart in the source
[24] = target: T5, Cytochrome P450 3A4; details: Potency
[25] = target: Glyceraldehyde-3-phosphate dehydrogenase (Homo sapiens, UniProt P04406)

SMILES: O=C(CCCCCCCC(=O)NNC(=O)Nc1ccccc1)NNC(=O)Nc1ccccc1
- IC50 [1]: 11.9 µM (active)

SMILES: O=C(C[n+]1cc(-c2ccccc2)n2c1CCC2)c1cccs1
- EC50 [2]: > 50 µM (active)

SMILES: O=C1CCCN1c1ccc(CNS(=O)(=O)c2ccc(F)cc2)cc1
- EC50 [2]: > 50 µM (active)

SMILES: Cn1ccs/c1=N\C(=O)c1ccccc1F
- IC50 [3]: > 50 µM (active)

SMILES: Cc1cccc(NC(=O)c2onc3c2CCCC3)c1C
- AC50 [4]: inconclusive
- AC50 [5]: 20 µM (inconclusive)

SMILES: CC1(C(=O)N(c2ccccc2)C(C(=O)NC2CCCC2)c2ccccn2)CC(=O)N=C2C=CC=CN21 (stereo not given)
- IC50 [6]: > 100 µM (inactive)
- IC50 [7]: > 100 µM (not active)

SMILES: Cc1cc(Cl)c(S(=O)(=O)Nc2ccc3c(c2)OCO3)cc1OCC(=O)NC1CCCCC1
- EC50 [8]: 2.06 µM (active)

SMILES: Cc1ccc(C)c(Cn2c(CO)nc3ccccc32)c1
- EC50 [8]: 2.68 µM (active)

SMILES: COc1cccc(C(=O)OCn2nnc3ccccc3c2=O)c1OC
- IC50 [3]: 16.2 µM (active)

SMILES: CC(C)c1cccc(-c2ccc3c(c2)S(=O)(=O)c2cccc(C(=O)NCc4ccco4)c2C3=O)c1
- IC50 [1]: 8.02 µM (active)

SMILES: Clc1cccc(/C(Cc2nc3ccccc3[nH]2)=N\Nc2ccccc2)c1
- EC50 [9]: > 99 µM (inactive)
- EC50 [10]: > 99 µM (inactive)

SMILES: NC(=NOC(=O)N1c2ccccc2Sc2ccccc21)c1ccc(Br)cc1
- IC50 [1]: 6.46 µM (active)

SMILES: CCCOc1ccc(N2CC(C(=O)Nc3ccccn3)CC2=O)cc1 (stereo not given)
- IC50 [3]: 19.8 µM (active)

SMILES: CCSc1nc(C)cc(C)c1S(=O)(=O)c1ccccc1C
- EC50 [2]: > 50 µM (active)

SMILES: COC(=O)c1cc2sccc2n1Cc1nc(-c2cccc(Cl)c2)oc1C
- IC50 [6]: > 100 µM (inactive)
- IC50 [7]: > 100 µM (not active)

SMILES: Cc1cc(C(=O)OCC(=O)NCCC(C)C)c2ccccc2n1
- AC50 [11]: 15.8 µM (inconclusive)
- AC50 [4]: inconclusive

SMILES: CCCCCCOc1ccc(CN2CCN(CC)CC2)cc1
- EC50 [2]: > 50 µM (active)
- EC50 [12]: > 30 µM (not active)
- EC50 [13]: 752 nM (active)

SMILES: Oc1ccc(C2NCc3ccccc3-n3cccc32)cc1Cl (stereo not given)
- EC50 [2]: > 50 µM (active)

SMILES: COc1ccc(NC(=O)C2CCN(C(=O)c3cccs3)CC2)c(OC)c1
- AC50 [4]: inconclusive

SMILES: Cc1cc(O)nc(NN=C(CC(C)C)CC(C)C)n1
- IC50 [6]: > 100 µM (inactive)
- IC50 [7]: > 100 µM (not active)

SMILES: O=C(COc1cccc2ccccc12)NNC(=O)CSCCO
- IC50 [6]: > 100 µM (inactive)
- IC50 [7]: > 100 µM (not active)

SMILES: Oc1ccccc1C=NN=Cc1c(O)ccc2ccccc12
- EC50 [14]: 5.17 µM (active)
- EC50 [9]: > 99 µM (inactive)
- EC50 [10]: > 99 µM (inactive)

SMILES: COc1ccc(C2(O)CCN(Cc3nnnn3Cc3ccc(F)cc3)CC2)cc1
- CC50 [15]: > 40 µM (active)

SMILES: O=S(=O)(NC1CCN(Cc2ccccc2)CC1)c1cccc2cccnc12
- AC50 [16]: 1.58 µM (inconclusive)
- AC50 [4]: inconclusive

SMILES: CCOc1ccccc1OCCOc1ccc(F)cc1
- AC50 [16]: 22.4 µM (inconclusive)
- AC50 [4]: inconclusive

SMILES: Cc1cc(NC(=O)CSc2c(C)[nH]c3ccccc23)no1
- EC50 [8]: 5.22 µM (active)

SMILES: OC1=C2C(=Nc3ccccc3NC2c2cccs2)CCC1 (stereo not given)
- AC50 [17]: 1.3 µM (active)
- AC50 [18]: 2.27 µM (active)
- AC50 [19]: 3.83 µM (active)
- AC50 [20]: 2.44 µM (active)

SMILES: Cc1ccc2[nH]c(SCc3ccc([N+](=O)[O-])cc3)nc2c1
- AC50 [21]: 1.12 µM (active)
- CC50 [22]: 13.6 µM (active)
- AC50 [16]: 5.01 µM (active)
- AC50 [23]: 3.55 µM (active)
- EC50 [8]: 4.41 µM (active)
- AC50 [5]: 0.794 µM (active)

SMILES: COc1ccc(S(=O)(=O)NCCC(=O)NC(C)c2ccccc2)cc1 (stereo not given)
- AC50 [16]: 14.1 µM (inconclusive)
- AC50 [11]: 22.4 µM (inconclusive)
- AC50 [4]: inconclusive
- AC50 [5]: 17.8 µM (inconclusive)

SMILES: Cc1ccc2c(c1)NC(=O)C(CC(=O)O)O2 (stereo not given)
- IC50 [6]: > 100 µM (inactive)
- IC50 [7]: > 100 µM (not active)

SMILES: O=C(/C=C/c1ccccc1)OC1CC(O)C2(O)C=CO[C@@H](OC3OC(CO)C(O)C(O)C3O)C12 (stereo not given in full)
- AC50 [24]: 3.98 µM (inconclusive)

SMILES: COc1ccc(C(=O)OCn2nnc3ccccc3c2=O)cc1
- IC50 [3]: 16.8 µM (active)

SMILES: O=C(Nc1ccc(Cl)cc1C(F)(F)F)c1ccc(Cl)cc1
- AC50 [21]: 4.47 µM (inconclusive)
- AC50 [4]: inconclusive
- AC50 [5]: 2.24 µM (inconclusive)

SMILES: CC[C@@]12C(=O)N(c3cccc(F)c3)C(=O)N1[C@H](c1ccc(Br)cc1)[C@@H]1C(=O)N(C(C)(C)C)C(=O)[C@@H]12
- AC50 [17]: < 0.26 µM (active)
- AC50 [18]: < 0.26 µM (active)
- AC50 [19]: < 0.26 µM (active)
- AC50 [20]: < 0.26 µM (active)

SMILES: CCCCCc1nc2c(c3c1CCCC3)CCCC2
- EC50 [2]: > 50 µM (active)

SMILES: Cc1ccn2c(=O)nc(SCC(=O)NCc3ccccc3)nc2c1
- IC50 [1]: 9.61 µM (active)

SMILES: COc1cccc(C(c2nnnn2CCc2ccccc2)N2CCN(c3ccccc3)CC2)c1OC (stereo not given)
- EC50 [8]: 0.986 µM (active)

SMILES: COC(=O)c1ccccc1NC(=O)Cn1cnc2c(cnn2-c2ccccc2)c1=O
- EC50 [9]: > 99 µM (inactive)
- EC50 [10]: > 99 µM (inactive)

SMILES: O=C(c1ccc(N2CCN(C(=O)c3ccccc3Br)CC2)cc1)c1cccc(F)c1
- IC50 [25]: > 100 µM (not active)
